According to paper PMC6452685, “Lysyl-tRNA synthetase as a drug target in malaria and cryptosporidiosis” (Proceedings of the National Academy of Sciences of the …, 2019):

Assays:
44 receptor/enzyme panel = assay: Preliminary selectivity study in a 44 receptor/enzyme panel; conditions: at a concentration of 10 μM
CYP2C19 = biological target: T1, CYP2C19 (Homo sapiens, UniProt P33261); assay: Fluorescence-based CYP inhibition, CYP2C19; assay type: in vitro ADME
T1 construct: purchased Cypex, Dundee, UK; host or cells: bacterial membranes (bactosomes)
Method: 4.7 F lu or e s ce nce-based CYP I nhibition usin g recombinantly expressed CYP b actosomes Fl uorogeni c C YP i nhi bi t i on s t udi es w ere c ondu ct ed at 37 °C i n 96-well, flat-bot t om, cl ear p ol y s t y rene pl at es. I ncubat i on mi xt ures cont ai ni ng Eas y C YP bact os omes (1000 pmol /ml , 10 mg /ml C y pex TM, Dundee, UK), fl uorogeni c substrate (Cypex TM) and 50 mM potas s i um phosphat e buffer (p H 7. 4) w er e prepared at t he fol l ow i ng fi nal concent rat i ons : C YP1A2, 5 pmol /ml + 35 µ M et hox y res orufi n (ER) ; CYP2C9, 10 pm ol/ml + 30 µM 7-methoxy-4-(tri fl uo romethy l )-coumari n (MFC ); C YP 2C 19, 5 pm ol /ml + 25 µM 3-cy ano-7-eth oxycoumarin (CEC); C YP 2D 6, 10 pmol /ml + 6 µM 7-meth oxy-4-(ami nomethy l )- coumari n (MAMC ); C YP 3A4, 10 pmol /ml + 1 µM diethoxyfluorescein (DEF) and 10 pmol /ml + 15 µM 7-benz y l ox y qui nol i ne (BQ ). […] 0125 ( 1A2 and 2C 9 onl y ) o r 0. 025 mg /ml (al l ot her i s oforms ). […] Positive control inhibitor, miconazole, was prepared as a 500 µM s olution in DMSO and similarly diluted.
For eac h i sofo rm, 2 20 µl of i ncubati on mi x was added to each wel l of a 96-well, flat-bot t om, cl ear pol y s t y rene pl at e. Al i quot s (5 µl) of each compound 5 conce ntrati on was then mi x ed wi th 220 µl of the incubation mix and pre-incubated at 37 °C for 5 min (final test compound concentration range: […]

C. parvum [1] = assay: In vitro Cryptosporidium time-kill curve assay in HCT-8 cells; assay type: cell-based; conditions: C. parvum in HCT-8 cell culture
Method: SUPPLEMENTARY INFORMATION ileocecal adenocarcinoma (HCT-8) cel l s (ATC C ) w ere cul t ured i n RP M I 1640 medi um (I nv i t rog en) supplemented with 10% fetal bovine serum (Sigma-Al dri ch), 120 U/ml peni ci l l i n, and 12 0 µg/ml streptomycin (ATCC), and used between passages 9 and 39 for all experiments. Cryptospori di um parvum Iowa isolate oocysts were purchased from Bunch Grass Farm (Deary, ID). Oocys ts were triggered to excyst by treating with 10 mM hydrochloric acid (10 min, 37°C) and the n 2 mM sodium taurocholate (Sigma-Al d r i c h ) i n P B S ( 1 0 m i n , […] ) . They w ere t hen added t o > 95% co nfl uent HC T-8 cel l monol ay ers i n 384-well plates (~5,500 oocysts/well). Ex pe ri me nt al compounds w e re adde d 3 h after i nfecti on, and assay pl ates were incubated for 48 h post-infection at 37°C unde r 5% CO2. Assay pl at es w ere t hen w as hed t h ree t i mes w i t h PBS cont ai ni ng 11 1 mM D-galactose, fixed with 4% parafo rmal dehy de i n PBS, t reat ed f or 10 mi n at 3 7°C w i t h 0. 25% T ri t on X-100, an d s t ai ned w i t h 1. […] […] […] Curves were pl ot t ed and t he hal f-maxi mal effecti ve (EC50) and 90% effecti v e concentrati on (EC90) were cal cul ated us i ng G raphPad Pri s m s oft w are, v ersi on 6. 01. […]
Cryptospori di um parvum elimination during cul ture in HCT-8 cells was measured as recently des cri bed (10). […]

C. parvum [2] = assay: Anti-Cryptosporidium in vivo efficacy in NOD SCID gamma mice; parameters: species or system mouse
Method: INF-γ–knockout mice ([28], [29]) were infected orally with Nluc-expressing transgenic C. parvum oocysts. Treatment started upon patency 4 d postinfection (p.i.), and mice were treated orally once a day for 7 d. Infection was monitored daily by luciferase measurements in pooled feces of the entire cage. Mice were followed for 3 wk after completion of drug treatment. […] NOD SCID gamma mice were infected with C. parvum oocysts ([26]). Treatment started 7 d p.i., and mice were treated orally once a day for 7 d. The study was run with four mice per cage; infection was monitored by quantitative PCR on day eight for individual mice, and data are shown as oocysts per milligram of feces. […]
Data analysis was performed using GraphPad Prism 7.0 (GraphPad S oftware), Excel 2016 (Microsoft ) and R free so ftware (https://www.r-project.org) for data pl otti ng and s tati s ti cal model li ng. […]
The Nl uc-C. parvum IFN-γ-knockout (IFN-γ KO) m ouse in vivo experiments were run in acco rdance with the publ i s hed method (22). Briefly, female C57BL/ 6 IFN-γ KO mi ce, aged 6–8 weeks were infected with 10,000 C. parvum UG A1 Nl uc (Vi naya k et al 2015, Natu re) tra ns g eni c oocys ts . Mi ce (n=5 per g rou p) w ere admi ni s t ered 20 mg /k g of comp o und 5 fo rmul ated i n 3% et hanol , 7% Tw een 8 0, 90 % saline or t he f ormul at i on (v ehi cl e) by o ral g av ag e. […]

PfKRS1 = conditions: cited from earlier work

T1 sequence (P33261 whole entry): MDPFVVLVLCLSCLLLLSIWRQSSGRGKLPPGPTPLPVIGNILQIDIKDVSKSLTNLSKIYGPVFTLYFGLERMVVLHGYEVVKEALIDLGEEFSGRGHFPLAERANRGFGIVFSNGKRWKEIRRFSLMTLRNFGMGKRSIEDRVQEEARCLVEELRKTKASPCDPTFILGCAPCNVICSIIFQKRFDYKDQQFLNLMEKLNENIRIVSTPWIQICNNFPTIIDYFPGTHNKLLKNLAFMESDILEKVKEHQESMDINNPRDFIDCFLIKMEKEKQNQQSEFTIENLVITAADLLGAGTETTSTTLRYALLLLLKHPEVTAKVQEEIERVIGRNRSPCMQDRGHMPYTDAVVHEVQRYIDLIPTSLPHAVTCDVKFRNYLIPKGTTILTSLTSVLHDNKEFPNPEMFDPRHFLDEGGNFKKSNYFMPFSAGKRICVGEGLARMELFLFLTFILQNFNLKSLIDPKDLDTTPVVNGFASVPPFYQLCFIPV

Compound | activity in 44 receptor/enzyme panel (44 receptor/enzyme panel) | IC50 (CYP2C19) | time-kill curve, parasite elimination (C. parvum [1]) | reduction in parasite levels compared with control (C. parvum [2]; NOD SCID gamma mouse, 20 mg/kg orally once a day for 7 d, day 8) | reduction of parasite burden (C. parvum [2]; dosed orally for 7 d, NOD SCID gamma mouse model) | selectivity for cytosolic PfKRS1 compared with HsKRS (PfKRS1)
O=C(NCC1(O)CCC(F)(F)CC1)c1cc(=O)c2cc(F)ccc2o1 [Compound 5] | no activity | > 10 µM | eliminated parasites at an exponential rate | 100 fold | two orders of magnitude | –
C[C@H]1CCC[C@H](C[C@H]2Cc3cc(O)cc(O)c3C(=O)O2)O1 [Compound 1, cladosporin, reference compound] | – | – | eliminated parasites at an exponential rate | – | – | > 100 fold
